According to PMC6063448, “Antimicrobial activity of linear lipopeptides derived from BP100 towards plant pathogens” (PLoS ONE, 2018):

Columns and labels:
[1] = test system: Erwinia amylovora PMV6076; assay: MIC, growth inhibition in microtiter plates (TSB); assay type: cell-based; conditions: Ea, 25°C, 48 h, OD 600 nm, lowest concentration with no growth, given as interval of tested concentrations, three replicates, experiment repeated twice
Summary of the method: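 The MIC is the lowest peptide concentration showing no growth after 48 h at 25 °C, with growth followed hourly by OD600 in TSB (triplicate wells, experiment repeated twice). Inocula came from 10^8 CFU mL^-1 suspensions of cells grown 24 h, or 48 h for X. fragariae, at 25 °C.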

[2] = test system: Pseudomonas syringae pv. actinidiae Psa3700.1.1; assay: MIC, growth inhibition in microtiter plates (TSB); assay type: cell-based; conditions: Psa, 25°C, 48 h, OD 600 nm, lowest concentration with no growth, given as interval of tested concentrations, three replicates, experiment repeated twice
Summary of the method: (§1)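 OD600 readout, hourly over 48 h at 25°C, 20 s shaking; TSB medium; inoculum from 10^8 CFU mL^-1 water suspension; triplicates, experiment run twice; MIC = lowest concentration showing no growth at endpoint.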

[3] = test system: Pseudomonas syringae pv. syringae EPS94; assay: MIC, growth inhibition in microtiter plates (TSB); assay type: cell-based; conditions: Pss, 25°C, 48 h, OD 600 nm, lowest concentration with no growth, given as interval of tested concentrations, three replicates, experiment repeated twice
Summary of the method: as §1

[4] = test system: Xanthomonas arboricola pv. pruni CFBP5563; assay: MIC, growth inhibition in microtiter plates (TSB); assay type: cell-based; conditions: Xap, 25°C, 48 h, OD 600 nm, lowest concentration with no growth, given as interval of tested concentrations, three replicates, experiment repeated twice
Summary of the method: as §1

[5] = test system: Xanthomonas axonopodis pv. vesicatoria 2133–2; assay: MIC, growth inhibition in microtiter plates (TSB); assay type: cell-based; conditions: Xav, 25°C, 48 h, OD 600 nm, lowest concentration with no growth, given as interval of tested concentrations, three replicates, experiment repeated twice
Summary of the method: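 Peptides, dissolved in water at 1 mM and filter-sterilized, were diluted and mixed with bacterial suspension (10^8 CFU mL^-1 before mixing) in TSB. Plates were incubated at 25°C with shaking, and OD600 was read hourly for 48 h. MIC was the lowest concentration with no growth at the end.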

[6] = test system: Xanthomonas fragariae Xf349-9A; assay: MIC, growth inhibition in microtiter plates (TSB); assay type: cell-based; conditions: Xf, 25°C, 48 h, OD 600 nm, lowest concentration with no growth, given as interval of tested concentrations, three replicates, experiment repeated twice
Summary of the method: as §1

tobacco leaves = assay: Effect of peptide infiltration on tobacco leaves; assay type: in vivo; conditions: for Size of the lesions in infiltrated tobacco leaves (diameter): 250 μM, 100 μL infiltrated into mesophyll, measured after 48 h; for Reaction observed in the area of infiltration of tobacco leaves: in contrast to melittin
Method: BP100 and the 36 lipopeptides were evaluated for their effect upon infiltration on tobacco leaves as described previously. Peptide solutions of 50, 150 and 250 μM were infiltrated (100 μL) into the mesophylls of fully expanded tobacco leaves. Infiltrations were carried out in a single leaf, and for each peptide and dose, at least three leaves randomly distributed in different plants were inoculated. Control infiltrations with water (negative control) or melittin (positive control) at the same molar concentration were performed. The appearance of symptoms on the leaves was followed for 48 h after infiltration and measured as a lesion diameter.

proteinase K = test system: T1, proteinase K; assay: Susceptibility to protease degradation; assay type: in vitro ADME; conditions: proteinase K (isolated protease) in TRIS buffer; 50 μg/mL peptide, 1 μg/mL proteinase K, 100 mM TRIS buffer pH 7.6, 25°C, 60 min; decrease of HPLC peak area (220 nm); read-out: Digestion with proteinase K (percentage of degraded peptide)
T1 construct: purchased Sigma-Aldrich Corporation, Spain
Method: Digestion of BP100 and of 16 selected lipopeptides was carried out by treating 50 μg/mL peptide with 1 μg/mL proteinase K (Sigma-Aldrich Corporation, Spain) in 100 mM TRIS buffer, pH 7.6, at 25°C. The peptide cleavage after 60 min was determined by HPLC using a Kromasil (4.6 × 40 mm; 3 μm particle size) C18 reverse-phase column. Linear gradients of 0.1% aqueous TFA and 0.1% TFA in CH3CN were run from 0.98:0.02 to 0:1 over 12 min with UV detection at 220 nm. Digestion was estimated as the percentage of degraded lipopeptide calculated from the decrease of the HPLC peak area of the native peptide.

| SMILES | MIC [1] [µM] | MIC [2] [µM] | MIC [3] [µM] | MIC [4] [µM] | MIC [5] [µM] | MIC [6] [µM] | Size of the lesions in infiltrated tobacco leaves (diameter) (tobacco leaves) [mm] | metabolised at 1 h, 50 μg/mL (proteinase K) [%] | Reaction observed in the area of infiltration of tobacco leaves (tobacco leaves) |
| --- | --- | --- | --- | --- | --- | --- | --- | --- | --- |
| CCCC(=O)NCCCC[C@H](NC(=O)[C@@H](NC(=O)[C@H](CCCCN)NC(=O)[C@H](CCCCN)NC(=O)[C@H](Cc1ccccc1)NC(=O)[C@H](CC(C)C)NC(=O)[C@H](CCCCN)NC(=O)[C@H](CCCCN)NC(C)=O)[C@@H](C)CC)C(=O)N[C@@H](CCCCN)C(=O)N[C@@H](Cc1ccc(O)cc1)C(=O)N[C@@H](CC(C)C)C(N)=O [BP387, Ac-KKLFKKIK(COC3H7)KYL-NH2] | 3.1 to 6.2 | 3.1 to 6.2 | 3.1 to 6.2 | 3.1 to 6.2 | 1.6 to 3.1 | 1.6 to 3.1 | 9.2 ± 0.96 | 15 | – |
| CC[C@H](C)[C@H](NC(=O)[C@H](CCCCN)NC(=O)[C@H](CCCCN)NC(=O)[C@H](Cc1ccccc1)NC(=O)[C@H](CC(C)C)NC(=O)[C@H](CCCCN)NC(=O)[C@@H](N)CCCCN)C(=O)N[C@@H](CC(C)C)C(=O)N[C@@H](CCCCN)C(=O)N[C@@H](Cc1ccc(O)cc1)C(=O)N[C@@H](CC(C)C)C(N)=O [BP100, H-Lys-Lys-Leu-Phe-Lys-Lys-Ile-Leu-Lys-Tyr-Leu-NH2] | 3.1 to 6.2 | 1.6 to 3.1 | 3.1 to 6.2 | 1.6 to 3.1 | 3.1 to 6.2 | 3.1 to 6.2 | – | 24 | – |
| CCCC(=O)NCCCC[C@H](NC(=O)[C@H](Cc1ccc(O)cc1)NC(=O)[C@H](CCCCN)NC(=O)[C@H](CC(C)C)NC(=O)[C@@H](NC(=O)[C@H](CCCCN)NC(=O)[C@H](CCCCN)NC(=O)[C@H](Cc1ccccc1)NC(=O)[C@H](CC(C)C)NC(=O)[C@H](CCCCN)NC(=O)[C@H](CCCCN)NC(C)=O)[C@@H](C)CC)C(N)=O [BP390, Ac-KKLFKKILKYK(COC3H7)-NH2] | 3.1 to 6.2 | 6.2 to 12.5 | 6.2 to 12.5 | 6.2 to 12.5 | 3.1 to 6.2 | 3.1 to 6.2 | – | – | – |
| CCCCCC(=O)NCCCC[C@H](NC(=O)[C@H](CC(C)C)NC(=O)[C@H](CCCCN)NC(=O)[C@H](CCCCN)NC(C)=O)C(=O)N[C@@H](CCCCN)C(=O)N[C@@H](CCCCN)C(=O)N[C@H](C(=O)N[C@@H](CC(C)C)C(=O)N[C@@H](CCCCN)C(=O)N[C@@H](Cc1ccc(O)cc1)C(=O)N[C@@H](CC(C)C)C(N)=O)[C@@H](C)CC [BP371, Ac-KKLK(COC5H11)KKILKYL-NH2] | 3.1 to 6.2 | 3.1 to 6.2 | 3.1 to 6.2 | 3.1 to 6.2 | 3.1 to 6.2 | 3.1 to 6.2 | – | – | – |
| CCCCCC(=O)NCCCC[C@H](NC(=O)[C@H](Cc1ccc(O)cc1)NC(=O)[C@H](CCCCN)NC(=O)[C@H](CC(C)C)NC(=O)[C@@H](NC(=O)[C@H](CCCCN)NC(=O)[C@H](CCCCN)NC(=O)[C@H](Cc1ccccc1)NC(=O)[C@H](CC(C)C)NC(=O)[C@H](CCCCN)NC(=O)[C@H](CCCCN)NC(C)=O)[C@@H](C)CC)C(N)=O [BP378, Ac-KKLFKKILKYK(COC5H11)-NH2] | 3.1 to 6.2 | 3.1 to 6.2 | 6.2 to 12.5 | 3.1 to 6.2 | 3.1 to 6.2 | 3.1 to 6.2 | 13.2 ± 4.7 | 45 | not a typical necrosis |
| CCCC(=O)NCCCC[C@H](NC(=O)[C@H](CCCCN)NC(C)=O)C(=O)N[C@@H](CC(C)C)C(=O)N[C@@H](Cc1ccccc1)C(=O)N[C@@H](CCCCN)C(=O)N[C@@H](CCCCN)C(=O)N[C@H](C(=O)N[C@@H](CC(C)C)C(=O)N[C@@H](CCCCN)C(=O)N[C@@H](Cc1ccc(O)cc1)C(=O)N[C@@H](CC(C)C)C(N)=O)[C@@H](C)CC [BP381, Ac-KK(COC3H7)LFKKILKYL-NH2] | 3.1 to 6.2 | 3.1 to 6.2 | 3.1 to 6.2 | 3.1 to 6.2 | 1.6 to 3.1 | 1.6 to 3.1 | 10.8 ± 1.9 | 53 | – |
| CCCC(=O)NCCCC[C@H](NC(=O)[C@H](CCCCN)NC(=O)[C@H](CC(C)C)NC(=O)[C@@H](NC(=O)[C@H](CCCCN)NC(=O)[C@H](CCCCN)NC(=O)[C@H](Cc1ccccc1)NC(=O)[C@H](CC(C)C)NC(=O)[C@H](CCCCN)NC(=O)[C@H](CCCCN)NC(C)=O)[C@@H](C)CC)C(=O)N[C@@H](CC(C)C)C(N)=O [BP389, Ac-KKLFKKILKK(COC3H7)L-NH2] | 3.1 to 6.2 | 3.1 to 6.2 | 6.2 to 12.5 | 0.8 to 1.6 | 0.8 to 1.6 | 1.6 to 3.1 | 9.0 ± 2.9 | 29 | – |
| CCCC(=O)NCCCC[C@H](NC(=O)[C@H](CCCCN)NC(=O)[C@H](Cc1ccccc1)NC(=O)[C@H](CC(C)C)NC(=O)[C@H](CCCCN)NC(=O)[C@H](CCCCN)NC(C)=O)C(=O)N[C@H](C(=O)N[C@@H](CC(C)C)C(=O)N[C@@H](CCCCN)C(=O)N[C@@H](Cc1ccc(O)cc1)C(=O)N[C@@H](CC(C)C)C(N)=O)[C@@H](C)CC [BP385, Ac-KKLFKK(COC3H7)ILKYL-NH2] | 6.2 to 12.5 | 6.2 to 12.5 | 6.2 to 12.5 | 0.8 to 1.6 | 0.8 to 1.6 | 1.6 to 3.1 | – | – | – |
| CCCCCCCCCCCC(=O)NCCCC[C@H](NC(=O)[C@H](CC(C)C)NC(=O)[C@@H](NC(=O)[C@H](CCCCN)NC(=O)[C@H](CCCCN)NC(=O)[C@H](Cc1ccccc1)NC(=O)[C@H](CC(C)C)NC(=O)[C@H](CCCCN)NC(=O)[C@H](CCCCN)NC(C)=O)[C@@H](C)CC)C(=O)N[C@@H](Cc1ccc(O)cc1)C(=O)N[C@@H](CC(C)C)C(N)=O [BP400, Ac-KKLFKKILK(COC11H23)YL-NH2] | >25 | >25 | >25 | 1.6 to 3.1 | 1.6 to 3.1 | 3.1 to 6.2 | – | – | not a typical necrosis |
| CCCCCC(=O)NCCCC[C@H](NC(=O)[C@H](CCCCN)NC(=O)[C@H](CCCCN)NC(=O)[C@H](Cc1ccccc1)NC(=O)[C@H](CC(C)C)NC(=O)[C@H](CCCCN)NC(=O)[C@H](CCCCN)NC(C)=O)C(=O)N[C@@H](CC(C)C)C(=O)N[C@@H](CCCCN)C(=O)N[C@@H](Cc1ccc(O)cc1)C(=O)N[C@@H](CC(C)C)C(N)=O [BP374, Ac-KKLFKKK(COC5H11)LKYL-NH2] | 3.1 to 6.2 | 3.1 to 6.2 | 6.2 to 12.5 | 6.2 to 12.5 | 6.2 to 12.5 | 3.1 to 6.2 | – | – | – |
